Assay results taken from PMC9598282 (Antibiotics, 2022).
Values joined by “and” are separate entries in the source; they are usually repeats but may differ in a detail not shown here. Equal values may be shown once. Read-outs that look alike come from different tables or passages of the source.

Tests used:
E. coli 107115 = assay: microbe, parasite or virus in culture; type: cell-based, Escherichia coli; settings: Escherichia coli, 107115, agent alone, one value per checkerboard plate
Experimental: (§1) The adjuvant properties of the guanidinylated polymyxins were evaluated using the checkerboard assay as previously described. The bacterial solution was prepared as described in the antimicrobial susceptibility assay. The antibiotic of interest and the adjuvant were serially diluted two-fold along the x- and y-axis on a 96-well plate, respectively, resulting in varying concentrations of both agents in each well. Equal volumes of bacterial solution were added to the designated wells. The well consisting of bacterial solution served as the positive control, while the wells containing only media served as the negative control. The plate was then incubated at 37 °C for 18 h. After incubation, an Emax Plus microplate reader (Molecular Devices, Union City, CA, USA) was used to measure the OD at a wavelength of 590 nm to confirm the turbidity. The fractional inhibitory concentration (FIC) index was then determined to establish the relationship between the antibiotic and adjuvant. The FIC index corresponds to the sum of the FICs of the antibiotic and adjuvant. The FIC of each agent is calculated by dividing its MIC when it is used in combination by its MIC when used alone. FIC indices ≤0.5, 0.5 < x ≤ 4 and >4 indicate synergy, additivity and antagonism, respectively.

E. coli ATCC 25922 = assay: microbe, parasite or virus in culture; type: cell-based, Escherichia coli; design: key to FIC index antibiotic + GCol / FIC index antibiotic + GPMB: sum of FICs; ≤0.5 synergy, 0.5–4 additivity, >4 antagonism; settings: for MIC: Escherichia coli, ATCC25922, 18 h, agent alone, one value per checkerboard plate, read-out: MIC alone
Experimental: as §1

A. baumannii 92247 = assay: microbe, parasite or virus in culture; type: cell-based, Acinetobacter baumannii; settings: one value per checkerboard plate; for MIC: Acinetobacter baumannii, 92247, agent alone
Experimental: as §1

A. baumannii ATCC 17978 = assay: microbe, parasite or virus in culture; type: cell-based, Acinetobacter baumannii; settings: for MIC: Acinetobacter baumannii, ATCC17978, 18 h, agent alone, one value per checkerboard plate, read-out: MIC alone
Experimental: as §1

A. baumannii AB027 = assay: microbe, parasite or virus in culture; type: cell-based, Acinetobacter baumannii; settings: one value per checkerboard plate; for MIC: Acinetobacter baumannii, AB027, agent alone
Experimental: as §1

A. baumannii AB031 = assay: Checkerboard assay; type: cell-based, Acinetobacter baumannii; settings: Acinetobacter baumannii, AB031, agent alone, one value per checkerboard plate
Experimental: as §1

[1] = system: P. aeruginosa P264-104354; assay: Checkerboard assay; type: cell-based, Pseudomonas aeruginosa; settings: one value per checkerboard plate
Experimental: as §1

P. aeruginosa P259-96918 = assay: Checkerboard assay; type: cell-based, Pseudomonas aeruginosa; settings: Pseudomonas aeruginosa, P25996918; agent alone, one value per checkerboard plate
Experimental: as §1

[2] = system: P. aeruginosa P262-101856; assay: Checkerboard assay; type: cell-based, Pseudomonas aeruginosa; settings: one value per checkerboard plate; for MIC: Pseudomonas aeruginosa, P262101856, agent alone
Experimental: as §1

P. aeruginosa 101243 = assay: Checkerboard assay; type: cell-based, Pseudomonas aeruginosa; settings: one value per checkerboard plate; for MIC: Pseudomonas aeruginosa, 101243, agent alone
Experimental: as §1

P. aeruginosa PAO1 = assay: microbe, parasite or virus in culture; type: cell-based, Pseudomonas aeruginosa
Experimental: as §1

P. aeruginosa 114228 = assay: microbe, parasite or virus in culture; type: cell-based, Pseudomonas aeruginosa; settings: one value per checkerboard plate; for MIC: Pseudomonas aeruginosa, 114228, agent alone
Experimental: as §1

P. aeruginosa PA 107092 [3] = assay: Time-kill assay; type: cell-based, Pseudomonas aeruginosa; settings: monotherapy, 8 μg/mL
Experimental: To study the time-dependent killing effects of the drug combinations, the time-kill kinetics were assessed. The time-kill assay was performed following the 8 μM (2 μg/mL) concentration of avibactam used in the checkerboard assay. […] This concentration also corresponds to the susceptibility breakpoint of both β-lactams.
For the preparation of the bacterial solution, an overnight grown culture was diluted in 0.85% saline solution and adjusted to 0.5 McFarland turbidity. […] The culture tubes were incubated at 37 °C, shaking at 250 rpm. At the appointed time intervals, a 100-μL aliquot was taken from each tube, serially diluted in phosphate-buffered saline (PBS) and plated on LB agar plates. The plates were incubated at 37 °C, and bacterial colonies were counted after 18 h. The bactericidal or bacteriostatic activity is determined based on the decrease in CFU over the time period. Bactericidal activity corresponds to ≥3 log10 reduction in CFU/mL, while bacteriostatic activity corresponds to <3 log10 reduction in CFU/mL.

P. aeruginosa PA 86052 = type: cell-based, Pseudomonas aeruginosa; settings: one value per checkerboard plate
Experimental: as §1

P. aeruginosa PA 107092 [4] = type: cell-based, Pseudomonas aeruginosa
Experimental: as §1

P. aeruginosa PA 88949 = type: cell-based, Pseudomonas aeruginosa; settings: one value per checkerboard plate
Experimental: as §1

P. aeruginosa PA 109084 = type: cell-based, Pseudomonas aeruginosa
Experimental: as §1

E. coli 94474 = assay: Checkerboard assay; type: cell-based, Escherichia coli; settings: Escherichia coli, 94474, agent alone, one value per checkerboard plate
Experimental: as §1

E. coli 94393 = assay: Checkerboard assay; type: cell-based, Escherichia coli; settings: Escherichia coli, 94393, agent alone, one value per checkerboard plate
Experimental: as §1

K. pneumoniae 113254 = assay: Checkerboard assay; type: cell-based, Klebsiella pneumoniae; settings: Klebsiella pneumoniae, 113254, agent alone, one value per checkerboard plate
Experimental: as §1

K. pneumoniae 113250 = assay: Checkerboard assay; type: cell-based, Klebsiella pneumoniae; settings: one value per checkerboard plate
Experimental: as §1

A. baumannii 110193 = assay: microbe, parasite or virus in culture; type: cell-based, Acinetobacter baumannii; settings: one value per checkerboard plate
Experimental: as §1

E. cloacae 121187 = assay: microbe, parasite or virus in culture; type: cell-based, Enterobacter cloacae; settings: one value per checkerboard plate
Experimental: as §1

[5] = one value per checkerboard plate

Row | Structure (SMILES) | MIC (E. coli 107115) [µg/mL] | Absolute MIC of antibiotic at 2 μg/mL GCol (E. coli ATCC 25922) [µg/mL] | MIC (E. coli ATCC 25922) [µg/mL] | MIC (A. baumannii 92247) [µg/mL] | Absolute MIC of antibiotic at 2 μg/mL GCol (A. baumannii ATCC 17978) [µg/mL] | Absolute MIC of antibiotic at 2 μg/mL GPMB (A. baumannii ATCC 17978) [µg/mL] | MIC (A. baumannii ATCC 17978) [µg/mL] | MIC (A. baumannii AB027) [µg/mL] | MIC (A. baumannii AB031) [µg/mL] | MIC [2] [µg/mL] | MIC (P. aeruginosa 101243) [µg/mL] | Absolute MIC of antibiotic at 4 μg/mL GCol (P. aeruginosa PAO1) [µg/mL] | Absolute MIC of antibiotic at 4 μg/mL GPMB (P. aeruginosa PAO1) [µg/mL] | MIC (P. aeruginosa 114228) [µg/mL] | other results
1 | C[C@H]1[C@H](NC(=O)/C(=N\OC(C)(C)C(=O)O)c2csc(N)n2)C(=O)N1S(=O)(=O)O [Aztreonam] | 1020 | 0.031 | 0.25 | 128 | 64 | 32 | 64 | 1020 | 64 | 32 | 16 | 0.5 | 0.25 | 16 | Absolute MIC of antibiotic at 2 μg/mL GPMB (E. coli ATCC 25922): 0.016 µg/mL; FIC index antibiotic + GCol (E. coli ATCC 25922): 0.188; MIC alone (A. baumannii 92247; agent alone): 256 µg/mL; MIC ([1]; Pseudomonas aeruginosa, P264104354, agent alone): 64 µg/mL; MIC alone ([1]; agent alone): 32 µg/mL; MIC (P. aeruginosa P259-96918): 32 µg/mL; MIC alone ([2]; agent alone): 64 µg/mL; MIC alone (P. aeruginosa 101243; agent alone): 32 µg/mL; MIC (P. aeruginosa PAO1; Pseudomonas aeruginosa, PAO1, 18 h, agent alone, one value per checkerboard plate, read-out: MIC alone): 4 µg/mL; MIC alone (P. aeruginosa 114228; agent alone): 8 µg/mL; log10 increase (bacterial growth) over 24 h (P. aeruginosa PA 107092 [3]): 2 to 3 log10; MIC antibiotic alone (P. aeruginosa PA 86052): 64 µg/mL and 32 µg/mL; MIC antibiotic alone (P. aeruginosa PA 107092 [4]; [5]): 32 µg/mL and 64 µg/mL; MIC antibiotic alone (P. aeruginosa PA 107092 [4]; plates with 8 μM avibactam): 16 µg/mL and 8 µg/mL; MIC antibiotic alone (P. aeruginosa PA 88949): 16 µg/mL; MIC antibiotic alone (P. aeruginosa PA 109084; [5]): 64 µg/mL; MIC antibiotic alone (P. aeruginosa PA 109084; plates with 8 μM avibactam): 8 µg/mL
2 | CC[C@H]1OC(=O)[C@H](C)[C@@H](O[C@H]2C[C@@](C)(OC)[C@@H](O)[C@H](C)O2)[C@H](C)[C@@H](O[C@@H]2O[C@H](C)C[C@H](N(C)C)[C@H]2O)[C@](C)(O)C[C@@H](C)C(=O)[C@H](C)[C@@H](O)[C@]1(C)O [Erythromycin] | 2050 | 0.25 | 32 | 8 | 32 | 0.5 | 32 | 8 | 16 | 2050 | 1020 | 16 | 2 | 64 | MIC (E. coli 94474): 64 µg/mL; MIC (E. coli 94393): 64 µg/mL; MIC (K. pneumoniae 113254): 64 µg/mL; MIC (K. pneumoniae 113250; Klebsiella pneumoniae, 113250, agent alone): 32 µg/mL; MIC alone (K. pneumoniae 113250; agent alone): 64 µg/mL; MIC (A. baumannii 110193; Acinetobacter baumannii, 110193, agent alone): 2 µg/mL; MIC alone (A. baumannii 110193; agent alone): 4 µg/mL; MIC alone (A. baumannii AB027; agent alone): 4 µg/mL; MIC (E. cloacae 121187; Enterobacter cloacae, 121187, agent alone): 1020 µg/mL; MIC alone (E. cloacae 121187; agent alone): 512 µg/mL
